Source: PubChem BioAssay (NCI)
Where “and” joins values, the source holds several entries; their conditions need not be identical. Equal values may be shown once.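 Test compounds were applied to cells in 96-well plates for 48 hours at 5 doses. GI50 is the concentration that inhibits growth by half. TGI marks complete inhibition of growth.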

Key:
Experiment in all cases: growth of human tumour cells (NCI), 48 h
A498 renal = test system: A498 renal
IGROV1 ovarian = test system: IGROV1 ovarian
MCF7 breast = test system: MCF7 breast
SF-295 CNS = test system: SF-295 CNS
SW-620 colon = test system: SW-620 colon
TK-10 renal = test system: TK-10 renal
U251 CNS = test system: U251 CNS
ACHN renal = test system: ACHN renal
SF-539 CNS = test system: SF-539 CNS
T-47D breast = test system: T-47D breast

Row | SMILES | TGI (A498 renal) | TGI (IGROV1 ovarian) | TGI (MCF7 breast) | TGI (SF-295 CNS) | TGI (SW-620 colon) | TGI (TK-10 renal) | TGI (U251 CNS) | TGI (ACHN renal) | TGI (SF-539 CNS) | GI50 (A498 renal) | GI50 (ACHN renal) | GI50 (IGROV1 ovarian) | GI50 (SF-295 CNS) | GI50 (SF-539 CNS) | GI50 (SW-620 colon) | GI50 (T-47D breast) | TGI (T-47D breast) | GI50 (TK-10 renal) | GI50 (U251 CNS)
1 | CC(C)c1ccc2nc3ccc(C(=O)NCCN4CCN(c5ccccc5)CC4)cn3c(=O)c2c1 | > 100 µM | > 100 µM | > 100 µM | 4.91 µM | > 100 µM | > 100 µM | > 100 µM |  |  |  |  |  |  |  |  |  |  |  | 
2 | FC(F)(F)c1cccc(C2SCc3nc4ccccc4n32)c1 (stereo unspecified) |  | > 100 µM |  | > 100 µM | > 100 µM | > 100 µM | > 100 µM | > 100 µM | > 100 µM |  |  |  |  |  |  |  |  |  | 
3 | O=C(NCCCCCCNC(=O)OCc1ccc2c(Cl)cc(Cl)c(O)c2n1)OCc1ccc2c(Cl)cc(Cl)c(O)c2n1 | 2.55 µM | 1.78 µM |  | 6.99 µM | 0.984 µM | 2.45 µM | 2.92 µM | 1.32 µM | 1.63 µM | 1.25 µM | 0.353 µM | 0.57 µM | 2.66 µM | 0.468 µM | 0.303 µM | 1.75 µM | 5.67 µM | 1.18 µM | 1.44 µM
4 | COc1cc(Nc2nc3cc(C(F)(F)F)ccc3nc2C)cc(OC)c1OC | 18.8 µM | 32 µM |  | 4.91 µM | 26.6 µM | 23.3 µM | 22.4 µM | 20.8 µM | 25.4 µM |  |  |  |  |  |  |  |  |  | 
5 | FC(F)(F)c1nc(-c2ccccc2)oc1Sc1oc(-c2ccccc2)nc1C(F)(F)F | > 100 µM | > 100 µM |  | > 100 µM | > 100 µM | > 100 µM | > 100 µM | > 100 µM | > 100 µM |  |  |  |  |  |  |  |  |  | 
6 | O=C(O)[C@@H](NS(=O)(=O)c1ccc([N+](=O)[O-])cc1)c1ccccc1 | > 100 µM | > 100 µM |  | > 100 µM | > 100 µM | > 100 µM | > 100 µM | > 100 µM | > 100 µM |  |  |  |  |  |  |  |  |  | 
7 | c1ccc2c(c1)[nH]c1c2ncc2[nH]c3ccccc3c21 | 9.07 µM | 22.5 µM |  | 11.4 µM | 10.3 µM | 20.1 µM | 5.64 µM | 16.3 µM | 7.21 µM |  |  |  |  |  |  |  |  |  | 
8 | CC(C)c1cccc(C(C)C)c1NC(=O)CCC(=O)NN | > 100 µM | > 100 µM |  | > 100 µM | 42.9 µM | > 100 µM | > 100 µM | > 100 µM | > 100 µM |  |  |  |  |  |  |  |  |  | 
9 | Cn1sc2ccccc2c1=S | 99 µM | 31.7 µM | 7.36 µM | 25.4 µM | 5.2 µM | 44.8 µM | 13.5 µM | 26.7 µM | 16.4 µM |  |  |  |  |  |  |  |  |  | 
10 | CCCN1C(=O)CNC(=O)c2[nH]cnc21 | > 100 µM | > 100 µM |  | > 100 µM | > 100 µM | > 100 µM | > 100 µM | > 100 µM | > 100 µM |  |  |  |  |  |  |  |  |  | 
11 | Nc1nc(=Nc2ccccc2)ss1 | > 100 µM | > 100 µM |  | > 100 µM | > 100 µM | > 100 µM | > 100 µM | > 100 µM | > 100 µM |  |  |  |  |  |  |  |  |  | 
12 | COc1ccc(C2C3=C(COC3=O)Oc3cc4c(cc32)OCO4)cc1 (stereo unspecified) |  | > 100 µM |  | 69.6 µM | > 100 µM | > 100 µM | > 100 µM | > 100 µM | 56.6 µM |  |  |  |  |  |  |  |  |  | 
13 | COc1ccccc1NC(=O)C(CC(C(=O)Nc1ccccc1OC)/C(C)=N/NC(=O)c1ccccc1O)/C(C)=N/NC(=O)c1ccccc1O (stereo unspecified) | > 100 µM | > 100 µM |  | > 100 µM | > 100 µM | > 100 µM | > 100 µM | > 100 µM | > 100 µM |  |  |  |  |  |  |  |  |  | 
14 | CCOC(=O)c1cc(OC(=O)CC)c2c(OC)ccc(OC)c2c1 |  | > 100 µM |  |  | > 100 µM | > 100 µM | > 100 µM | > 100 µM | > 100 µM |  |  |  |  |  |  |  |  |  | 
15 | COC(C)(C)[C@H](O)C(O)CC(C)[C@@H]1CCC23CC12CCC1[C@@]2(C)CCC(OC(C)=O)C(C)(C)C2CC(OC2OC(COC(C)=O)C(O)C(O)C2O)[C@]13C (stereo partly specified) | 18.7 µM and 34.7 µM | 8.11 µM and 15 µM |  | 10.1 µM and 7.53 µM | 13.7 µM and 15.3 µM | 14.9 µM and 23.4 µM | 9.64 µM and 17.7 µM | 11.4 µM and 20 µM | 9.41 µM and 17.2 µM | 17 µM | 6.08 µM | 3.59 µM | 2.17 µM | 5.66 µM | 4.67 µM |  |  | 10.7 µM | 5.3 µM
16 | O=C(C=Nc1ccccc1C(=O)[O-])c1cccs1.O=C(C=Nc1ccccc1C(=O)[O-])c1cccs1.[Zn+2] | > 100 µM | 76 µM |  | 42.1 µM | > 100 µM | > 100 µM | 35.5 µM | > 100 µM | > 100 µM |  |  |  |  |  |  |  |  |  | 
17 | Nc1ncnc2c1ncn2C1OC(COC2C(CO)OC(OC(C(=O)O)C(O)C(OP(=O)(O)O)C(O)C(=O)O)C(O)C2O)C(O)C1O (stereo unspecified) | > 100 µM | > 100 µM | > 100 µM | > 100 µM | > 100 µM | > 100 µM | > 100 µM | > 100 µM | > 100 µM |  |  |  |  |  |  |  |  |  | 
